The results in this text go back to patent publication US9101613B2, “Methods for treating neurological disease” (Neurim Pharmaceuticals (1991) Ltd., priority 2006, dated 2015).

The test system of series [1] is C57BL/6 mice. Put plainly: MPTP mouse model of Parkinson's disease, striatal dopamine, DOPAC and HVA levels (HPLC). The series is classed as in vivo. The source says: (§1) Three-month-old male C57BL/6 mice were housed in groups of 5 animals per cage (50 cm×25 cm×20 cm) in a temperature- and humidity-controlled environment with ad libitum access to food and water. Animals were maintained on a 12 hr light/dark schedule, with lights on at 7 A.M.
(§2) Six groups of mice were used: (1) the control mice treated with saline and vehicle (n=10), (2) the N-[2-(5-methoxy-indol-3-yl)-ethyl]-comanilamide control mice treated with saline and N-[2-(5-methoxy-indol-3-yl)-ethyl]-comanilamide at 100 or 200 mg/kg (n=5, respectively), (3) the MPTP mice treated with MPTP and vehicle (n=10) and (4) the N-[2-(5-methoxy-indol-3-yl)-ethyl]-comanilamide-treated MPTP mice treated with MPTP and N-[2-(5-methoxy-indol-3-yl)-ethyl]-comanilamide at 100 or 200 mg/kg (n=10, respectively). Mice received daily (i.p.) injections of saline or MPTP (30 mg/kg/day) dissolved in physiological saline for five consecutive days to induce Parkinsonism. N-[2-(5-methoxy-indol-3-yl)-ethyl]-comanilamide or vehicle was administered (i.p.) once per day for 17 days, starting on the first day of MPTP injections. Open field test, pole test, forepaw stride length test and traction test were conducted on day 14, 15, 16 and 17 after the first injections of MPTP, respectively.
To measure striatal dopamine, DOPAC and HVA levels, mice were sacrificed at day 17 after the final injection of MPTP. The striata were dissected and stored at −70° C. before assays. Striatal dopamine levels were measured by high performance liquid chromatography (HPLC) with electrochemical detection.

The test system of series [2] is C57BL/6 mice. Put plainly: MPTP mouse model of Parkinson's disease, pole test. The series is classed as in vivo.
From the text: as §1, §2
In the pole test, the mouse was placed head upward on the top of a vertical wooden rough-surfaced pole (diameter: 1 cm, height: 50 cm), then allowed to descend five times. Each mouse was habituated to the apparatus two sessions (one session per day) before the day of first MPTP injections. The total time until the mouse reached the floor with its four paws was recorded (T-total) as well as the time needed for the mouse to turn completely head downward (T-turn). For each session of five descents, the best performance was kept for the T-turn and T-total. If the mouse was unable to turn completely downwards, fell or slipped down, the default value of 20 s was taken into account.

The test system of the next series is PC12 cells. Put plainly: Glutamate-induced loss of cell viability in PC12 cells (MTT). In kind it is cell-based. Here is the method:
For the cell viability assays, 24 h after seeding in 96-well plates, the cultures were pretreated with N-[2-(5-methoxy-indol-3-yl)-ethyl]-comanilamide (100 pm, 1 nM, 10 nM, 100 nM, 1 uM and 10 uM) or melatonin (1 uM) for 0 h before exposure to 4 mM glutamate. After 24 h incubation, cellular viability was evaluated by MTT assay.
PC12 cell viability was determined by the conventional 3-(4,5-dimethylthiazol-2-yl)-2,5-diphenyltetrazolium bromide (MTT) assay. PC12 cells were treated with MTT solution (0.5 mg/ml) and were then incubated at 37° C. for 4 hrs. The medium was removed and 150 μl DMSO/well was added to dissolve formazan. The absorbance at 570 nm was recorded using an enzyme-linked immunosorbent assay reader and the percentage of cell growth inhibition was calculated as follows: Cell viability (%)=A570 (treatment)/A570 (control)×100.

In series [3] the test system is C57BL/6 mice. Put plainly: MPTP mouse model of Parkinson's disease, open field test. In kind it is in vivo.
From the text: as §1
as §2, with “N-[2-(5-methoxy-indol-3-yl)-ethyl]-comanilamide or vehicle was administered (i.p.) once per day for 17 days, starting on the first day of MPTP injections. Open field test, pole test, forepaw stride length test and traction test were conducted on day 14, 15, 16 and 17 after the first injections of MPTP, respectively.” left out
For the open field test, the mice were taken from their home cages and transported to the locomotor test chambers (40×40×50 cm) for 5 min and their behaviors were recorded as digital videos. The digital videos then were analyzed off-line. The distance of each mouse traveling in the locomotor test chamber was analyzed by the commercial software.

The mark [4] stands for this setting: MPTP mice, 100 or 200 mg/kg/day i.p.
Setting [5] is: saline mice, 100 or 200 mg/kg i.p., both p>0.05.

For `COc1ccc2[nH]cc(CCNC(=O)c3cc(=O)cco3)c2c1` [N-[2-(5-methoxy-indol-3-yl)-ethyl]-comanilamide], the “striatal dopamine level vs MPTP mice” value in the series on C57BL/6 mice [1] (MPTP mice, 100 or 200 mg/kg i.p., p<0.01 and p<0.05, respectively) is on record as “showed more level of dopamine concentration”. In addition, the “striatal DOPAC level” value in the series with C57BL/6 mice [1] (setting [4]) is “ameliorated the MPTP-induced reductions”. For the same compound, in the series on C57BL/6 mice [1] (setting [4]), the “striatal HVA level” value is “ameliorated the MPTP-induced reductions”. Besides, the “striatal dopamine level vs control mice” value in the series with C57BL/6 mice [1] (setting [5]) is reported as “no significant difference in dopamine level”. For the same compound, the “T-turn, pole test, vs MPTP mice” value is recorded as “showed less level of the T-turn” with C57BL/6 mice [2] (100 mg/kg i.p., p<0.05) and “no significant difference in the T-turn” in the series with C57BL/6 mice [2] (200 mg/kg i.p., p>0.05). The “T-turn, pole test, vs control mice” value with C57BL/6 mice [2] (setting [5]) is given as “no significant difference in the T-turn”. Also, in the series with PC12 cells (10 uM, without glutamate), the “effect on cell viability without glutamate” value is recorded as “had no effect on the cell viability”. The “effect on glutamate-induced loss of cell viability” value in the series on PC12 cells (100 pm to 10 uM, all doses, 4 mM glutamate, 24 h, MTT) was “significantly attenuated glutamate-induced loss of cell viability”. In addition, the “traveled distance, open field test, vs MPTP mice” value in the series on C57BL/6 mice [3] (MPTP mice, 100 or 200 mg/kg i.p. once per day, day 14, both p<0.01) is given as “showed more level of the traveled distance”. Also, the “traveled distance, open field test, vs control mice” value in the series on C57BL/6 mice [3] (setting [5]) was “no significant difference in the traveled distance”.
